Results reported in ChEMBL document CHEMBL1136703, “Leporin B: a novel hexokinase II gene inducing agent from an unidentified fungus” (Bioorg Med Chem Lett, 2003).

System: L6
Test: Inhibitory concentration against induction of Hexokinase II-luci signal in the reporter cell line
Type: functional, cell-based
Settings: Rattus norvegicus

Molecule `C/C=C/C1Oc2c(-c3ccccc3)cn(O)c(=O)c2C2C(C)CCCC12` (stereo unspecified) has an IC50 of 10 µM.
